# In US12637424B2, “Pharmaceutical salt of an arylpyrrole derivative” (SENTINEL ONCOLOGY LIMITED, priority 2020, dated 2026):
# Key:
# [1] = Chiral stability (interconversion) of isolated atropisomers in ethanol; format: physicochemical; conditions: for % ee of sample @ 40° C. / % ee sample @ 80° C.: ethanol; for interconversion / racemization of atropisomers: heating for 10 days at 40° C. and 80° C.
# Procedure: To assess the interconversion of atropisomer A-1 and atropisomer A-2, chiral stability was monitored at 40° C. and 80° C. […] 1. 2×1 mg of pure atropisomer was dissolved in 1 mL of ethanol in a sealed-dram vial. • 2. One set of vials was heated at 40° C. and another set at 80° C. • 3. At specified time-points a 20 μL aliquot from each stock solution (1 mL) was taken and quenched into a HPLC vial containing a 80 μL solution of hexane:ethanol; 80:20 to afford a final concentration of […] and the sample was analysed by chiral HPLC • 4. Analysis was carried out at the following time-points: 0 h, 24 h, 48 h, 72 h, 96 h and 240 h for the samples kept at 40° C. and 24 h, 96 h and 240 h for the samples kept at 80° C. using chiral HPLC method 5
# A-172 = assay: Cancer cell line panel proliferation (CellTiter-Glo); format: cell-based; conditions: A-172, Brain&Nerves, 72 hours
# Procedure: (§1) Screening against diverse cancer cell lines was performed to identify tumour types displaying sensitivity to atropisomers A-1 and A-2. A panel of 48 cancer-derived cell lines was screened in a high-throughput proliferation assay using dilutions of atropisomers A-1/A-2. Cell lines that were screened included those representing cancer of the pancreas, large intestine/colorectum, lung, brain and nerves, and lymphoma and leukaemia cell lines. Cell lines were treated with serial half-log dilutions of compound and assayed 72 hours later for proliferation using CellTiter-Glo Assay (Promega). IC50 values were calculated by fitting the dose-response data using a nonlinear regression model.
# AsPC-1 = assay: as above; format: cell-based; conditions: AsPC-1, Pancreas, 72 hours
# Procedure: as §1
# COLO 205 = assay: as above; format: cell-based; conditions: COLO 205, Large intestine/Colorectum, 72 hours
# Procedure: as §1
# HBL-1 = assay: as above; format: cell-based; conditions: HBL-1, Blood/Lymphoma, 72 hours
# Procedure: as §1
# JeKo-1 = assay: as above; format: cell-based; conditions: JeKo-1, Blood/Lymphoma, 72 hours
# Procedure: as §1
# LN-229 = assay: as above; format: cell-based; conditions: LN-229, Brain&Nerves, 72 hours
# Procedure: as §1
# LoVo = assay: as above; format: cell-based; conditions: Large intestine/Colorectum, 72 hours
# Procedure: as §1
# MV-4-11 = assay: as above; format: cell-based; conditions: MV-4-11, Blood/Leukaemia, 72 hours
# Procedure: as §1
# NAMALWA = assay: as above; format: cell-based; conditions: Blood/Lymphoma, 72 hours
# Procedure: as §1
# Raji = assay: as above; format: cell-based; conditions: Blood/Lymphoma, 72 hours
# Procedure: as §1
# SU-DHL-6 = assay: as above; format: cell-based; conditions: SU-DHL-6, Blood/Lymphoma, 72 hours
# Procedure: as §1
# [2] = system: HeLa cells stably expressing a Centrin1-GFP fusion protein; assay: Centriole number (Centrin1-GFP) assay; format: cell-based; conditions: 0.02 μM, 72 hours
# Procedure: The effect of A-2 on centrosome function was therefore investigated further. HeLa cells stably expressing a Centrin1-GFP fusion protein were seeded into 96-well plates overnight. Cells were treated with atropisomer A-2 (at a concentration of 0.02 μM in DMSO) or DMSO control for 72 hours and then imaged using a fluorescence microscope. Multiple cell fields were captured for each treatment condition, and the images were subsequently analysed manually. Centrin1-GFP specifically marks centrioles as discrete foci, and therefore can be used to quantitate centriole number per cell. Thus, for each treatment condition, 100 cells were analysed and the number of centrioles present in each cell was recorded. The data were then separated into bins (no centrioles, 1 centriole, 2 centrioles, and greater than 2 centrioles) and are shown in FIG. 11.
# [3] = system: U87-Luc cells intracerebrally implanted; assay: U87-Luc orthotopic xenograft model; format: in vivo, male athymic nude mice; conditions: oral 100 mg/kg on days 1, 4, 7, 10 and 13; Day 15
# Procedure: U87-Luc cells were intracerebrally implanted into the brains of male athymic nude mice and tumour growth was monitored by bioluminescent signal. In the treatment group animals were given an oral dose of 100 mg/kg of atropisomer A-2 on days 1, 4, 7, 10 and 13. The control group animals were given vehicle only.
% ee of sample @ 40° C. ([1]; 0 h) [% ee],% ee of sample @ 40° C. ([1]; 24 h) [% ee],% ee of sample @ 40° C. ([1]; 48 h) [% ee],% ee of sample @ 40° C. ([1]; 72 h) [% ee],% ee of sample @ 40° C. ([1]; 96 h) [% ee],% ee of sample @ 40° C. ([1]; 10 days) [% ee],% ee sample @ 80° C. ([1]; 0 h) [% ee],% ee sample @ 80° C. ([1]; 24 h) [% ee],% ee sample @ 80° C. ([1]; 96 h) [% ee],% ee sample @ 80° C. ([1]; 10 days) [% ee],interconversion / racemization of atropisomers [1],IC50 (NAMALWA) [nM],SMILES,other results
97.20,97.34,97.30,97.24,97.14,97.46,97.20,95.62,96.62,97.12,no interconversion was observed,250,"CN(C)CCNC(=O)c1ccc(-c2ccc(-c3ccc(Cl)cc3)n2-c2ccccc2C(F)(F)F)cc1 (single isomer, unassigned) [Atropisomer A-2]","IC50 (A-172; Homo sapiens): 340 nM; IC50 (AsPC-1; Homo sapiens, ASPC1): 2900 nM; IC50 (COLO 205; Homo sapiens): 380 nM; IC50 (HBL-1; HBL1): 660 nM; IC50 (JeKo-1; Homo sapiens): 190 nM; IC50 (LN-229; Homo sapiens): 310 nM; IC50 (LoVo; Homo sapiens): 540 nM; IC50 (MV-4-11; Homo sapiens, MV4-11): 280 nM; IC50 (Raji; Homo sapiens): 360 nM; IC50 (SU-DHL-6; Homo sapiens): 260 nM; effect on centriole number per cell [2]: evidence of PLK4 inhibition phenotypes; bioluminescent tumour signal, treated versus control [3]: a decrease in tumour signal"
100,100,100,100,100,100,100,100,100,100,no interconversion was observed,7050,"CN(C)CCNC(=O)c1ccc(-c2ccc(-c3ccc(Cl)cc3)n2-c2ccccc2C(F)(F)F)cc1 (single isomer, unassigned; atropisomer a) [Atropisomer A-1]",IC50 (A-172): 7070 nM; IC50 (AsPC-1): > 10000 nM; IC50 (COLO 205): 6750 nM; IC50 (HBL-1): 9940 nM; IC50 (JeKo-1): 7940 nM; IC50 (LN-229): 7370 nM; IC50 (LoVo): 8360 nM; IC50 (MV-4-11): 6490 nM; IC50 (Raji): 3910 nM; IC50 (SU-DHL-6): 3980 nM
